System: IL-1α
Experiment: IL-1α secretion by UV-B irradiated excised human skin explants (ELISA), marker for antiinflammatory activity
Type: cell-based
Settings: applied before and after UV-B irradiation, * significant p < 0.05
Protocol: The effect of phytosphingosine was assessed ex vivo on excised human skin explants.
The explant was exposed to UV-B rays as a physical, proinflammatory stress.
The antiinflammatory effect of phytosphingosine was evaluated by measurement of the amount of the cytokine IL-1α secreted in the incubation medium of the skin explants.
• Preparation of the human skin explants obtained after plastic surgery using standard techniques. • Application of the test product: • resp. 0% (Placebo), 0.2 and 0.5% phytosphingosine (PS) in Propylene glycol:Ethanol (60:40). • Dexamethasone (1 μM) was used as the reference product. • The products were applied before and after irradiation (˜2 mg/cm^2) • IL-1α secretion was measured in the incubation medium of the skin explants, using a standard ELISA technique. • Each experimental condition was performed in triplicate.

SMILES | IL-1α secreted in the incubation medium (Dexamethasone 1 μM, before UV-B 48, after UV-B 205, placebo 165) | IL-1α secreted in the incubation medium (0.2% PS in Propylene glycol:Ethanol (60:40), ~2 mg/cm^2, placebo 165) | IL-1α secreted in the incubation medium (0.5% PS in Propylene glycol:Ethanol (60:40), ~2 mg/cm^2, placebo 165)
C[C@@H]1C[C@H]2[C@@H]3CCC4=CC(=O)C=C[C@]4(C)[C@@]3(F)[C@@H](O)C[C@]2(C)[C@@]1(O)C(=O)CO [Dexamethasone, reference compound] | 116* pg per ml | – | –
CCCCCCCCCCCCCCC(O)C(O)C(N)CO (stereo not drawn) [PS, 2-amino-octadecane-1,3,4-triol] | – | 82* pg per ml | 92* pg per ml

From US7597899B2, “Compositions comprising a combination of a free sphingoid base and ceramide and uses thereof” (Cosmoferm B.V., priority 1997, dated 2009)
